Entries after “also recorded” stand apart in the source; their conditions may differ.
Columns and labels:
Factor VII = conditions: LNP siRNA systems containing these lipids; cited from earlier work
supercoiled plasmid DNA = test: Plasmid DNA cleavage by small-molecule strand breakers (gel electrophoresis); type: biochemical; conditions: for DNA cleavage activity on supercoiled plasmid: gel electrophoresis, FIG. 19A-19D; for DNA cleavage activity on supercoiled plasmid / Effect of reducing agent on DNA cleavage: supercoiled plasmid; for Effect of reducing agent on DNA cleavage: with reducing agent, FIG. 19A, 19B
Description: Nitracrine (compound 1.15) was synthesized according to the reaction scheme depicted in FIG. 5. Plasmid DNA was incubated with nitracrine alone (10, 12, 14 μM), nitracrine with exposure to UV (365 nm), or nitracrine with exposure to UV and reducing agent TCEP (FIG. 8A). The same experiment was repeated but using 16, 18, or 20 μM nitracrine (FIG. 8B).
Plasmid DNA was incubated with nitracrine alone (10, 12, 14 μM), nitracrine with exposure to UV (365 nm), or nitracrine with exposure to UV and reducing agent DTT (FIG. 9A). The same experiment was repeated but using 16, 18, or 20 μM nitracrine (FIG. 9B).
Plasmid DNA was incubated with 16 μM nitracrine and exposed to UV (365 nm) over a range of 30-60 minutes (FIG. 10).
DNA cleavage activity of synthetic strand breakers. A series of small molecule DNA strand breakers having diverse structures and cleavage mechanisms were tested (FIG. 19A-19D). A supercoiled plasmid was used as a model substrate DNA, as both single and double-strand breaks can easily be detected using gel electrophoresis.

target DNA = test: AsCpf1 activity, mutational analysis; type: biochemical
pcDNA = pcDNA cleavage by compound 1.15, gel electrophoresis; type: biochemical

Compound: CCCCC/C=C\C/C=C\CCCCCCCCOCC(CN(C)C)OCCCCCCCC/C=C\C/C=C\CCCCC (stereo not shown) [DLinDMA, 1,2-dilinoleyloxy-3-N,N-dimethylaminopropane]
- gene silencing potency in hepatocytes in vivo (rank order) (Factor VII): DLinKC2-DMA>DLinKDMA>DLinDMA>>DLinDAP

Compound: CC[C@@]1(O[C@H]2C[C@H](OC)[C@@H](O)[C@H](C)O2)[C@H](O[C@@H]2C[C@H](O)[C@@H](N(C)C)[C@H](C)O2)C2=Cc3c(O)c4c(c(O)c3C2=C(O)[C@@H]1[C@H]1C(=O)c2c(c(=[N+]=[N-])c3c(O)c5c(=O)ccc(=O)c5c(O)c23)[C@@H](O[C@@H]2C[C@H](O)[C@@H](N(C)C)[C@H](C)O2)[C@@]1(CC)O[C@H]1C[C@H](OC)[C@@H](O)[C@H](C)O1)C(=O)C=CC4=O [Lomaiviticin C]
- DNA cleavage activity on supercoiled plasmid (supercoiled plasmid DNA): cleave DNA at low micromolar concentrations
- Effect of reducing agent on DNA cleavage (supercoiled plasmid DNA): accelerated by a reducing agent

Compound: CC(C)C(=O)O[C@H]1c2c(c3c(=O)c4cccc(O)c4c(=O)c=3c2=[N+]=[N-])[C@@H](O)[C@H]2O[C@@]21C [FL-120B]
- DNA cleavage activity on supercoiled plasmid (supercoiled plasmid DNA): cleave DNA at low micromolar concentrations
- Effect of reducing agent on DNA cleavage (supercoiled plasmid DNA): accelerated by a reducing agent

Compound: CCCCC/C=C\C/C=C\CCCCCCCCC1(CCCCCCCC/C=C\C/C=C\CCCCC)OCC(CCN(C)C)O1 (stereo not shown) [DLinKC2-DMA, 1,2-dilinoleyl-4-(2-dimethylaminoethyl)-[1,3]-dioxolane]
- gene silencing potency in hepatocytes in vivo (rank order) (Factor VII): DLinKC2-DMA>DLinKDMA>DLinDMA>>DLinDAP

Compound: G783P: AsCpf1 mutant, WED
- activity (target DNA): reduced activities; also recorded: Reduced activity

Compound: R176A: AsCpf1 mutant, REC1
- activity (target DNA): reduced activities; also recorded: Reduced activity

Compound: CCCCC/C=C\C/C=C\CCCCCCCCC1(CCCCCCCC/C=C\C/C=C\CCCCC)OCC(CN(C)C)O1 (stereo not shown) [DLinKDMA, 1,2-dilinoleyloxy-keto-N,N-dimethyl-3-aminopropane]
- gene silencing potency in hepatocytes in vivo (rank order) (Factor VII): DLinKC2-DMA>DLinKDMA>DLinDMA>>DLinDAP

Compound: CCCCC/C=C\C/C=C\CCCCCCCC(=O)OCC(CN(C)C)OC(=O)CCCCCCC/C=C\C/C=C\CCCCC (stereo not shown) [DLinDAP, 1,2-dilineoyl-3-dimethylammonium-propane]
- gene silencing potency in hepatocytes in vivo (rank order) (Factor VII): DLinKC2-DMA>DLinKDMA>DLinDMA>>DLinDAP

Compound: R951A: AsCpf1 mutant, bridge helix
- activity (target DNA): reduced activities

Compound: CN(C)CCCNc1c2ccccc2nc2cccc([N+](=O)[O-])c12 [compound 1.15, nitracrine]
- pcDNA cleavage (pcDNA; 16 μM, UV (365 nm) from 30 to 60 min): pcDNA cleavage
- pcDNA cleavage (pcDNA; 10-20 μM, UV (365 nm), presence and absence of reducing agent DTT): pcDNA cleavage
- pcDNA cleavage (pcDNA; 10-20 μM, UV (365 nm), presence and absence of reducing agent TCEP): pcDNA cleavage

Compound: CN(C)CCCNc1c2ccccc2nc2cccc([N+](=O)[O-])c12 [Nitracrine]
- DNA cleavage over UV exposure time (supercoiled plasmid DNA; plasmid DNA, 16 μM nitracrine, UV 365 nm for 30-60 minutes): Cleavage was observed under all conditions
- DNA cleavage with exposure to UV (supercoiled plasmid DNA; plasmid DNA, nitracrine 10-20 μM, UV 365 nm): DNA cleavage was observed at all nitracrine concentrations
- DNA cleavage with exposure to UV and reducing agent DTT (supercoiled plasmid DNA; plasmid DNA, nitracrine 10-20 μM, UV 365 nm, DTT): including with DTT
- DNA cleavage activity on supercoiled plasmid (supercoiled plasmid DNA): cleaves DNA when irradiated by light

Compound: R192A: AsCpf1 mutant, REC1
- activity (target DNA): reduced activities; also recorded: Reduced activity
